Assay results: patent US5914242A, “Method for diminishing myocardial infarction using protein phosphatase inhibitors” (priority 1997, dated 1999)
“Also recorded” adds a separate entry of the source.

Key:
[1] = system: protein phosphatase type 1 (PP1); assay: Protein phosphatase inhibition assay, purified catalytic subunit, [32P]-phosphohistone or phosphorylase a substrate; assay type: biochemical
Experimental: (§1) FIG. 4: Effect of fostriecin on the activity of protein phosphatase type 1 (PP1) and protein phosphatase type 2A (PP2A). The activity of the purified catalytic subunits of PP1 (Δ,s) or PP2A (O,1) was assayed in the presence of the indicated amount of fostriecin. The inhibition assays employed freshly prepared [^32 P]-phosphohistone (open symbols) or [^32 P]phosphorylase A (filled symbols) as substrate and highly purified catalytic subunits of PP1 or PP2A. Assays were conducted in a total volume of 80 μl, and the indicated amount of fostriecin was added to the assay 10 minutes prior to initiation of the reaction by the addition of substrate. Each point represents the mean ± SE (n>6).
(§2) Determination of protein phosphatase activity: Protein phosphatase activity against phosphohistone was determined by the quantification of liberated [^32 P] from phosphohistone according to previously established methods (see Honkanen et al., J. Biol. Chem. 265:19401-04 (1990); Honkanen et al., Mol. Pharmacol. 40:577-83 (1991); and Critz and Honkanen, Neuroprotocols 6:78-83 (1995)). Assays (80 μl final volume) were conducted in 50 mM Tris-buffer (pH 7.4) containing 0.5 mM DTT, 4 mM EDTA, and phosphoprotein (2 μM PO4). The assay was initiated by the addition of substrate (30 μl) to a 1.5 ml microfuge tube containing 50 μl of dilute homogenate. Assays were conducted at 30° C. for 10 minutes and were stopped by the addition of 100 μl of 1N H2 SO4 containing 1 mM K2 HPO4. [^32 P]Phosphate liberated by the enzyme was then extracted as a phosphomolybdate complex and measured according to the methods of Killilea et al., Arch. Biochem. Biophys. 191:638-46 (1978)). Briefly, free phosphate was extracted by adding 20 μl of ammonium molybdate (7.5% w/v in 1.4 N H2 SO4) and 250 μl of isobutanol:benzine (1:1, v/v) to each tube. The tubes were mixed vigorously for approximately 10 seconds followed by centrifugation at 14,000×g for 2 minutes. Aliquots of the upper phase (100 μl) were removed for counting, and radioactivity was quantified with a scintillation counter.
(§3) For inhibition studies, the indicated amount of fostriecin or okadaic acid was added to the enzyme mixture 10 minutes before the reaction was initiated with the addition of substrate. Controls received solvent alone, and in all experiments the amount of enzyme was diluted to ensure that the samples were below the titration endpoint. The titration endpoint is defined as the concentration of enzyme after which further dilution no longer affects the IC50 of the toxin, and represents a point where the concentration of enzyme used in the assay no longer approaches that of the toxin. This ensures that IC50 represents the potency of the inhibitor alone and is not representative of a combination of potency of the toxin and titration artifacts of the assay system. Preliminary assays were also performed to ensure the dephosphorylation reaction was linear with respect to enzyme concentration and time.
(§4) The catalytic subunit of PP2A was purified to apparent homogeneity according to established methods as described by Pallas et al., Cell 60:167-176 (1990) using G-75 Sephadex in the place of Ultrogel-AcA44 as previously reported in Brautigan et al., J. Biol. Chem. 260:4295-02 and Honkanen et al., Mol. Pharmacol 40:577-83 (1991). PP1 and PP2A both are now also available from several commercial sources.

[2] = system: protein phosphatase type 2A (PP2A); assay: as above; assay type: biochemical
Experimental: as §1, §2, §3, §4

PP1/PP2A-chimera (CRHM2) = assay: Inhibition of recombinant PP1/PP2A chimera; assay type: biochemical, human PP1 / bovine PP2A
Experimental: FIG. 6: Sequence of a PP1/PP2A chimera. To characterize the fostriecin binding site, the N-terminal region of PP1 was ligated to the C-terminal region of PP2A (in bold) to produce a PP1/PP2A-chimera (CRHM2). Previous studies indicate that the okadaic acid binding domain is contained in the C-terminal region of PP2A that was incorporated into CRHM2.
FIG. 7: Effect of fostriecin and okadaic acid on the activity of recombinant CRHM2. CRHM2 activity was assayed in the presence of the indicated amount of fostriecin (FIG. 7A) or okadaic acid (FIG. 7B). […] Assays were conducted as described in FIG. 5. Each point represents the mean ± SE (n>6).
PP1, an enzyme highly homologous to PP2A, could be expressed in a stable manner and in relatively large amounts. Thus, human PP1 was cloned and subcloned into a bacterial expression vector as was done for PP2A. […] To create a hybrid enzyme (a PP1/PP2A chimera) that could be expressed stably like rPP1 but would bind okadaic acid with high affinity like PP2A, a number of mutant forms of PP1 and PP2A were constructed. Then, through mutational analysis, the okadaic acid binding domain of PP2A was identified. The okadaic acid binding domain from PP2A was cloned behind the amino terminal domain of PP1. The hybrid, referred to as CRHM-2, was subcloned into an expression vector. Restriction analysis of CRHM-2 confirmed the identity of the construct.
In these studies, the bacterial expressed PP1/PP2A hybrid enzyme was produced by growing appropriate strains of transformed E. coli at 18° C. for 48 hours in LB-media containing 50 μg/ml ampicillin, 1 mM MnCl2, and 50 μM IPTG. The bacteria were lysed with a French Press, and after centrifugation at 15,000×g for 45 min, the phosphatase was partially purified via ion-exchange [High Q (BioRad) and MonoQ (Pharmacia)] and affinity [Heparin-Sepharose (Pharmacia)] chromatography. The sensitivity of the chimera to fostriecin was determined employing the same protein phosphatase assay employed with endogenous PP1 or PP2A, with the addition of MnCl2 (1 mM) to the assay buffer.

PP2B = assay: Effect on PP2B; assay type: biochemical
[3] = system: alkaline protein phosphatase; assay: Effect on alkaline protein phosphatase; assay type: biochemical
acid phosphatase = assay: Effect on acid phosphatase; assay type: biochemical
[4] = system: a variety of protein kinases; assay: Effect on protein kinases; assay type: biochemical
[5] = phosphohistone and phosphorylase-a substrates

CC(O)(/C=C/C1CC=CC(=O)O1)C(CC(O)\C=C/C=C\C=C\CO)OP(=O)(O)O (centres unmarked) [fostriecin]
effect on PP1 at the protective concentration ([1]; 1-10 μM fostriecin): no direct effect; also recorded: minor effect
inhibition of PP1 catalytic subunit [1, 5]: inhibited by fostriecin in a dose-dependent manner
inhibition of PP2A at the protective concentration ([2]; 1-10 μM fostriecin): inhibits the activity of PP2A; also recorded: inhibits PP2A completely
inhibition of PP2A catalytic subunit [2, 5]: inhibited by fostriecin in a dose-dependent manner
concentration inhibiting PP2A relative to PP1 ([2]; purified catalytic subunits): at a lower concentration than PP1
sensitivity / potency of inhibition of the chimera (PP1/PP2A-chimera (CRHM2); [32P]-phosphohistone, 1 mM MnCl2 in assay buffer): sensitive
binding affinity to the recombinant hybrid enzyme (PP1/PP2A-chimera (CRHM2); enzyme printed as rPP2Ac-1): affinity comparable to that of PP1
effect on PP2B (PP2B): no effect
effect on alkaline protein phosphatase [3]: no effect
effect on acid phosphatase (acid phosphatase): no effect
effect on a variety of protein kinases [4]: no effect
